The assay has as its target T1, h-NK1 receptors (Homo sapiens, UniProt P25103).
T1 construct: expressed in transfected cells; host or cells: CHO cells
As to the kind of experiment: ^125 I-BH-Substance P binding to h-NK1 receptors. The note with it: at the concentration of 0.1 μg/ml; CHO cell membranes expressing h-NK1 receptors; read-out: inhibition rate of ^125 I-BH-Substance P binding to h-NK1 receptors. On the procedure: ^125 I-BH-Substance P Binding to h-NK1 Receptors Test Method
^125 I-BH-Substance P Binding to h-NK1 Receptors
(a) Crude CHO cell membrane preparation
CHO cells permanently expressing h-NK1 receptors were harvested and homogenized with a Dounce homogenizer at 4° C. in a buffer (0.25M sucrose, 25 mM Tris-HCl pH 7.4, 10 mM MgCl2, 1 mM EDTA, 5 μg/ml p-APMSF). The homogenate was centrifuged (500×g, 10 minutes), and the pellet was resuspended in the same buffer, homogenized, and centrifuged. The two supernatants were combined and centrifuged (100,000×g, 1 hour). The crude cell membranes thus isolated were resuspended in buffer (25 mM Tris-HCl pH 7.4, 10 mM MgCl2, 1 mM EDTA, 5 μg/ml p-APMSF) and stored at -80° C. until use.
(b) ^125 I-BH-Substance P binding to preparation membrane Cell membranes (6 μg/ml) were incubated with ^125 I-BH-Substance P (0.1 nM) with or without test compounds in 0.25 ml of Medium 2(50 mM Tris-HCl pH 7.4, 5 mM MnCl2, 20 μg/ml chymostatin, 40 μg/ml bacitracin, 4 μg/ml leupeptin, 5 μg/ml p-APMSF, 200 μg/ml BSA) at 22° C. for 90 minutes. At the end of the incubation period, the content was quickly filtered over a Wahtman GF/C glass filter (pretreated with 0.1% polyethylene imine for 3 hours prior to use) under aspiration. Each of the filters was then washed four times with 5 ml of buffer (50 mM Tris-HCl pH 7.4, 5 mM MnCl2). The radioactivity was counted by using Auto Gamma counter (Packerd RIASTAR 5420A). All data presented are specific binding defined as that displaceable by 3 μM unlabeled Substance P.

One may read the inhibition as the drop in the measured response relative to a control, in per cent.

T1 sequence (P25103 whole entry): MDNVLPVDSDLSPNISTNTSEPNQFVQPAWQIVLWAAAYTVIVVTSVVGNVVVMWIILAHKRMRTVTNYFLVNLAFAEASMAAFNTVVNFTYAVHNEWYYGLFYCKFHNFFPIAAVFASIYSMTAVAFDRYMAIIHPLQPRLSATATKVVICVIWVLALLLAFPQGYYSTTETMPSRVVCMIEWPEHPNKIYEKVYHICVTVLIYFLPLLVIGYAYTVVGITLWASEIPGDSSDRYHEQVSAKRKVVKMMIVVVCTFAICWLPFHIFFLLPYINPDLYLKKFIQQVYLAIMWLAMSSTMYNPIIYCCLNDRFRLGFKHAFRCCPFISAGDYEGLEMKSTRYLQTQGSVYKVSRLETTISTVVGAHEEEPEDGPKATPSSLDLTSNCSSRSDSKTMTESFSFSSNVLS

For `CCCC(=O)Nc1nc(CN2CCN(C(=O)c3cc(C(F)(F)F)cc(C(F)(F)F)c3)[C@H](Cc3c[nH]c4ccccc34)C2)cs1` [Example 79-6], the inhibition at 0.1 µg/mL is more than 90%.

The record behind these values is US5883098A, “Piperazine derivatives” (Fujisawa Pharmaceutical Co., Ltd., priority 1993, dated 1999).
